Measurements reported in ChEMBL document CHEMBL3351293, “Design, synthesis and in vitro evaluation of novel uni- and bivalent ligands for the cannabinoid receptor type 1 with variation of spacer length and structure” (Bioorg Med Chem Lett, 2014).

Legend:
Cannabinoid receptor 2 = Cannabinoid receptor 2 (Homo sapiens, UniProt P34972); assay: Displacement of [3H] CP-55,940 from human CB2 receptor expressed in HEK cells at 10 uM after 3 hrs by scintillation counting; format: cell-based, HEK293; conditions: for inhibition: HEK293
Cannabinoid receptor 1 [1] = molecular target: T1, Cannabinoid receptor 1 (Homo sapiens, UniProt P21554); assay: Inverse agonist activity at human CB1 receptor expressed in Sf9 cells coexpressing Gbeta1gamma2 and RSG4 assessed as degradation of [gamma-33P]GTP after 20 mins by steady-state GTPase assay; format: cell-based
Cannabinoid receptor 1 [2] = molecular target: T1, Cannabinoid receptor 1; conditions: Sf9, at 30 µM
Description: Inverse agonist activity at human CB1 receptor expressed in Sf9 cells coexpressing Gbeta1gamma2 and RSG4 assessed as degradation of [gamma-33P]GTP at 30 uM after 20 mins by steady-state GTPase assay relative to control

Cannabinoid receptor 1 [3] = molecular target: T1, Cannabinoid receptor 1; conditions: Sf9, 30 uM
Description: Agonist activity at human CB1 receptor expressed in Sf9 cells coexpressing Gbeta1gamma2 and RSG4 assessed as degradation of [gamma-33P]GTP at 30 uM after 20 mins by steady-state GTPase assay relative to control

T1 sequence (P21554 whole entry): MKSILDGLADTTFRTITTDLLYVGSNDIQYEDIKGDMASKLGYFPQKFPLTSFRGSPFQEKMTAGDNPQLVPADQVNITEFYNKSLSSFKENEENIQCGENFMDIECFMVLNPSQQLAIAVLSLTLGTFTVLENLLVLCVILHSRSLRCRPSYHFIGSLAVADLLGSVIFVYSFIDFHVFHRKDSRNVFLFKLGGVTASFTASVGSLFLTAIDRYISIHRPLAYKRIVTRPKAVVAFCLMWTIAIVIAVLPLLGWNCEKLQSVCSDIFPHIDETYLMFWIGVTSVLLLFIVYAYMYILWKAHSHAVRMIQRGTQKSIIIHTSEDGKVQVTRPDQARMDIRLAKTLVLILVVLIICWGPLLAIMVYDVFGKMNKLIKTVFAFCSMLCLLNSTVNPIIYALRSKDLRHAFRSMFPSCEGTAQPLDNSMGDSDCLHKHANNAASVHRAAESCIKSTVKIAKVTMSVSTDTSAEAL
Sequence of Cannabinoid receptor 2 (P34972 whole entry): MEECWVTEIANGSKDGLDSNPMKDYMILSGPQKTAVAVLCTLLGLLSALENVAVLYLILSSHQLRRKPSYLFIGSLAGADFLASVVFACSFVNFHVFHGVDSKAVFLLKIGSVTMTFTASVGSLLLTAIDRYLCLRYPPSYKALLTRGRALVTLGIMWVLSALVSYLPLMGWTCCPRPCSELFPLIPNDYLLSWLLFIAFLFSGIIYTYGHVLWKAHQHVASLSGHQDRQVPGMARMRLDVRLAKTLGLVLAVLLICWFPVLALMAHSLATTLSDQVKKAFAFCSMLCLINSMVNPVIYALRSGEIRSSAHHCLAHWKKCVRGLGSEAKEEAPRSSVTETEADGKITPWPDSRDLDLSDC

| SMILES | Ki (Cannabinoid receptor 2) [µM] | inhibition (Cannabinoid receptor 2) [%] | EC50 (Cannabinoid receptor 1 [1]) [µM] | Emax (Cannabinoid receptor 1 [2]) [%] | Emax (Cannabinoid receptor 1 [3]) [%] |
| --- | --- | --- | --- | --- | --- |
| Cc1c(C(=O)NCCCCNCc2ccccc2)nn(-c2ccc(Cl)cc2Cl)c1-c1ccc(Cl)cc1 | 12.7 | 85.4 | 0.661 | 92.5 | – |
| Cc1c(C(=O)NCCCCCCCCNC(=O)c2ccc(C(=O)NCCCCCCCCNC(=O)c3nn(-c4ccc(Cl)cc4Cl)c(-c4ccc(Cl)cc4)c3C)cc2)nn(-c2ccc(Cl)cc2Cl)c1-c1ccc(Cl)cc1 | – | 9.7 | 40.7 | 29.3 | – |
| Cc1c(C(=O)NCCCCCCCCNC(=O)c2ccccc2)nn(-c2ccc(Cl)cc2Cl)c1-c1ccc(Cl)cc1 | – | 21.4 | 0.501 | 80.2 | – |
| Cc1c(C(=O)NCCCCCCCCN)nn(-c2ccc(Cl)cc2Cl)c1-c1ccc(Cl)cc1 | – | 9.5 | 0.112 | 92.8 | – |
| Cc1c(C(=O)NCCCCNC(=O)[C@@H]2CCC[C@H](C(=O)NCCCCNC(=O)c3nn(-c4ccc(Cl)cc4Cl)c(-c4ccc(Cl)cc4)c3C)C2)nn(-c2ccc(Cl)cc2Cl)c1-c1ccc(Cl)cc1 | – | 19.8 | 24.3 | 38.2 | – |
| Cc1c(C(=O)NCCCCCCCCNC(=O)[C@@H]2CCC[C@@H](C(=O)NCCCCCCCCNC(=O)c3nn(-c4ccc(Cl)cc4Cl)c(-c4ccc(Cl)cc4)c3C)C2)nn(-c2ccc(Cl)cc2Cl)c1-c1ccc(Cl)cc1 | – | 18.8 | 7.6 | 45.5 | – |
| Cc1c(C(=O)NCCCCNCc2cccc(CNCCCCNC(=O)c3nn(-c4ccc(Cl)cc4Cl)c(-c4ccc(Cl)cc4)c3C)c2)nn(-c2ccc(Cl)cc2Cl)c1-c1ccc(Cl)cc1 | – | 7 | 8.85 | 76.8 | – |
| Cc1c(C(=O)NCCCCCCCCNCc2ccccc2)nn(-c2ccc(Cl)cc2Cl)c1-c1ccc(Cl)cc1 | 31 | 93.9 | 0.123 | 93.8 | – |
| Cc1c(C(=O)NCCCCNC(=O)[C@H]2CC[C@@H](C(=O)NCCCCNC(=O)c3nn(-c4ccc(Cl)cc4Cl)c(-c4ccc(Cl)cc4)c3C)CC2)nn(-c2ccc(Cl)cc2Cl)c1-c1ccc(Cl)cc1 | – | 25.9 | 9.66 | 61.9 | – |
| Cc1c(C(=O)NCCCCNC(=O)c2ccccc2)nn(-c2ccc(Cl)cc2Cl)c1-c1ccc(Cl)cc1 | – | 25.8 | 0.776 | 94 | – |
| Cc1c(C(=O)NCCCCCCCCNC(=O)c2cccc(C(=O)NCCCCCCCCNC(=O)c3nn(-c4ccc(Cl)cc4Cl)c(-c4ccc(Cl)cc4)c3C)c2)nn(-c2ccc(Cl)cc2Cl)c1-c1ccc(Cl)cc1 | – | 29.1 | 13.5 | 59.1 | – |
| Cc1c(C(=O)NCCCCNC(=O)[C@@H]2CCC[C@@H](C(=O)NCCCCNC(=O)c3nn(-c4ccc(Cl)cc4Cl)c(-c4ccc(Cl)cc4)c3C)C2)nn(-c2ccc(Cl)cc2Cl)c1-c1ccc(Cl)cc1 (relative stereo) | – | 41.1 | 8.55 | 63 | – |
| Cc1c(C(=O)NCCCCNC(=O)c2cccc(C(=O)NCCCCNC(=O)c3nn(-c4ccc(Cl)cc4Cl)c(-c4ccc(Cl)cc4)c3C)c2)nn(-c2ccc(Cl)cc2Cl)c1-c1ccc(Cl)cc1 | – | 0 | – | 19.5 | – |
| Cc1c(C(=O)NCCCCCCCCNC(=O)[C@H]2CC[C@H](C(=O)NCCCCCCCCNC(=O)c3nn(-c4ccc(Cl)cc4Cl)c(-c4ccc(Cl)cc4)c3C)CC2)nn(-c2ccc(Cl)cc2Cl)c1-c1ccc(Cl)cc1 | – | 14.5 | 9.55 | 38.8 | – |
| Cc1c(C(=O)NCCCCNCc2cccc(C(=O)NCCCCNC(=O)c3nn(-c4ccc(Cl)cc4Cl)c(-c4ccc(Cl)cc4)c3C)c2)nn(-c2ccc(Cl)cc2Cl)c1-c1ccc(Cl)cc1 | – | 15.3 | 1.62 | 78.1 | – |
| Cc1c(C(=O)NCCCCNC(=O)c2ccc(C(=O)NCCCCNC(=O)c3nn(-c4ccc(Cl)cc4Cl)c(-c4ccc(Cl)cc4)c3C)cc2)nn(-c2ccc(Cl)cc2Cl)c1-c1ccc(Cl)cc1 | – | 24.3 | 15 | 50.2 | – |
| CCCCCCC(C)(C)c1ccc([C@@H]2C[C@H](O)CC[C@H]2CCCO)c(O)c1 | – | – | – | – | 67.4 |

| SMILES | Ki (Cannabinoid receptor 2) [µM] | inhibition (Cannabinoid receptor 2) [%] | EC50 (Cannabinoid receptor 1 [1]) [µM] | Emax (Cannabinoid receptor 1 [2]) [%] | Emax (Cannabinoid receptor 1 [3]) [%] |
| --- | --- | --- | --- | --- | --- |
| Cc1c(C(=O)NCCCCN)nn(-c2ccc(Cl)cc2Cl)c1-c1ccc(Cl)cc1 | – | 31.8 | 2.82 | 86.9 | – |
| Cc1c(C(=O)NCCCCCCCCNC(=O)[C@@H]2CCC[C@H](C(=O)NCCCCCCCCNC(=O)c3nn(-c4ccc(Cl)cc4Cl)c(-c4ccc(Cl)cc4)c3C)C2)nn(-c2ccc(Cl)cc2Cl)c1-c1ccc(Cl)cc1 | – | 10.3 | 3.16 | 33.6 | – |
| Cc1c(C(=O)NCCCCNC(=O)C2CCCCC2)nn(-c2ccc(Cl)cc2Cl)c1-c1ccc(Cl)cc1 | – | 24.1 | 0.11 | 91.5 | – |
| Cc1c(C(=O)NCCCCNC(=O)C23CC4CC(C2)CC(C(=O)NCCCCNC(=O)c2nn(-c5ccc(Cl)cc5Cl)c(-c5ccc(Cl)cc5)c2C)(C4)C3)nn(-c2ccc(Cl)cc2Cl)c1-c1ccc(Cl)cc1 | – | 15.8 | 16.2 | 66.4 | – |
| Cc1c(C(=O)NCCCCNCc2ccc(C(=O)NCCCCNC(=O)c3nn(-c4ccc(Cl)cc4Cl)c(-c4ccc(Cl)cc4)c3C)cc2)nn(-c2ccc(Cl)cc2Cl)c1-c1ccc(Cl)cc1 | – | 23 | 1.91 | 67.4 | – |
| Cc1c(C(=O)NCCCCCCCCNC(=O)[C@H]2CC[C@@H](C(=O)NCCCCCCCCNC(=O)c3nn(-c4ccc(Cl)cc4Cl)c(-c4ccc(Cl)cc4)c3C)CC2)nn(-c2ccc(Cl)cc2Cl)c1-c1ccc(Cl)cc1 | – | 27.3 | 8.71 | 62.4 | – |
| Cc1c(C(=O)NCCCCCCCCNC(=O)[C@H]2CCCC[C@@H]2C(=O)NCCCCCCCCNC(=O)c2nn(-c3ccc(Cl)cc3Cl)c(-c3ccc(Cl)cc3)c2C)nn(-c2ccc(Cl)cc2Cl)c1-c1ccc(Cl)cc1 (relative stereo) | – | 10.5 | – | 14.3 | – |
| Cc1c(C(=O)NCCCCNCc2ccc(CNCCCCNC(=O)c3nn(-c4ccc(Cl)cc4Cl)c(-c4ccc(Cl)cc4)c3C)cc2)nn(-c2ccc(Cl)cc2Cl)c1-c1ccc(Cl)cc1 | 2.4 | 102 | 2.95 | 93.2 | – |
| Cc1c(C(=O)NCCCCCCCN(CCCCCCCNC(=O)c2nn(-c3ccc(Cl)cc3Cl)c(-c3ccc(Cl)cc3)c2C)Cc2ccccc2)nn(-c2ccc(Cl)cc2Cl)c1-c1ccc(Cl)cc1 | – | 22.6 | 3.85 | 67.5 | – |
| Cc1c(C(=O)NN2CCCCC2)nn(-c2ccc(Cl)cc2Cl)c1-c1ccc(Cl)cc1 | – | 9 | – | – | – |
| Cc1c(C(=O)NCCCCCCCCNC(=O)C23CC4CC(C2)CC(C(=O)NCCCCCCCCNC(=O)c2nn(-c5ccc(Cl)cc5Cl)c(-c5ccc(Cl)cc5)c2C)(C4)C3)nn(-c2ccc(Cl)cc2Cl)c1-c1ccc(Cl)cc1 | – | 4.1 | 7.24 | 34.7 | – |
| Cc1c(C(=O)NCCCCCCCCNC(=O)C2CCCCC2)nn(-c2ccc(Cl)cc2Cl)c1-c1ccc(Cl)cc1 | – | 20.2 | 1.1 | 78.8 | – |
| Cc1c(C(=O)NCCCCCCCNCCCCCCCNC(=O)c2nn(-c3ccc(Cl)cc3Cl)c(-c3ccc(Cl)cc3)c2C)nn(-c2ccc(Cl)cc2Cl)c1-c1ccc(Cl)cc1 | – | 34.4 | 0.871 | 89.2 | – |
| Cc1c(C(=O)NCCCCCCNC(=O)c2cccc(C(=O)NCCNC(=O)c3nn(-c4ccc(Cl)cc4Cl)c(-c4ccc(Cl)cc4)c3C)c2)nn(-c2ccc(Cl)cc2Cl)c1-c1ccc(Cl)cc1 | – | 3.2 | – | 43.6 | – |
| Cc1c(C(=O)NCCCCNC(=O)[C@H]2CC[C@H](C(=O)NCCCCNC(=O)c3nn(-c4ccc(Cl)cc4Cl)c(-c4ccc(Cl)cc4)c3C)CC2)nn(-c2ccc(Cl)cc2Cl)c1-c1ccc(Cl)cc1 | – | 17.6 | – | – | – |
| Cc1c(C(=O)NCCCCNC(=O)[C@H]2CCCC[C@@H]2C(=O)NCCCCNC(=O)c2nn(-c3ccc(Cl)cc3Cl)c(-c3ccc(Cl)cc3)c2C)nn(-c2ccc(Cl)cc2Cl)c1-c1ccc(Cl)cc1 (relative stereo) | – | 14.6 | 10.5 | 58.4 | – |
| Cc1c(C(=O)NN2CCCCC2)nn(-c2ccc(Cl)cc2Cl)c1-c1ccc(I)cc1 | – | – | – | 100 | – |
